Experimental data as given in patent US12233060B2, “Inhibitors of Ataxia-Telangiectasia Mutated and Rad3-related protein kinase (ATR) for use in methods of treating cancer” (THE INSTITUTE OF CANCER RESEARCH: ROYAL CANCER HOSPITAL, priority 2016, dated 2025).

Columns and labels:
[1] = tested on: HCT116 ARID1A+/+ xenografts; test: In vivo efficacy, HCT116 ARID1A+/+ subcutaneous xenografts; design: species or system mice
Experimental: (§1) FIG. 3. In vivo ARID1A/ATR synthetic lethality. A. Schematic of VX-970 therapy experiment in mice bearing established HCT116 ARID1A^+/+ and ARID1A^−/− xenografts. Cells were inoculated subcutaneously into nude mice and tumors allowed to establish for 10 days. Mice were then randomized to treatment regimens of either VX-970 (60 mg/kg, 4× weekly by oral gavage) or vehicle. Mice were then treated for a subsequent 40 days. Tumor volume was monitored twice weekly. B. Relative tumor volume plot from (A) showing efficacy of VX-970 and selectivity for ARID1A^−/− xenografts* p=0.024, ANOVA. C. Schematic of tumor incidence experiment in mice with non-established HCT116 ARID1A^+/+ and ARID1A^−/− xenografts. Mice were inoculated with cells as before, randomized and then treated with VX-970. VX-970 or vehicle treatment was initiated on the day of cell implantation. Tumor volume was monitored twice weekly and overall tumour incidence was assessed 40 days later. D. Bar chart of incidence 40 days after implantation of HCT116 ARID1A^+/+ and ARID1A^−/− cells. Each group contained 15 animals and fractions above bars indicate the number of animals in which a measurable xenograft formed. *p=0.027 Fisher's exact test. E and F. Tumor growth in experiment described in (C). *p=0.015 ANOVA. G. VX-970 dose response curves from TOV21G (ARID1A mutant) and RMG1 (ARID1A wildtype) cells. Cells were exposed to VX-970 for 5 days. […] PARP-1, cleaved PARP-1 (85 kDa fragment) and tubulin were detected by western blot. […] Caspase3/7 activity was assessed using Caspase-Glo and total cellular viability was estimated using CellTitre-Glo. Luminescence ratios for Caspase-Glo (i.e. apoptotic cells) and CellTitre-Glo (ie viable cells) was determined for each dose and normalized to DMSO treated samples. *Student's t-test, p<0.05. […]
In vivo efficacy studies were performed using HCT116 […], HCT116 ARID1A^−/− and TOV21G cells injected subcutaneously in the flank of female CD-1 Nude mice. […] Tumours were measured manually by calliper trice weekly and animals were sacrificed when tumours reached >15 mm in any direction.

[2] = tested on: HCT116 ARID1A+/+ and ARID1A−/− cells; test: PARP cleavage western blot; type: cell-based, human; conditions: 24 hours exposure; camptothecin 1 uM positive control
Experimental: as §1, with “Mice were inoculated with cells as before, randomized and then treated with VX-970. VX-970 or vehicle treatment was initiated on the day of cell implantation.” left out, “later.” for “later. D. Bar chart of incidence 40 days after implantation of HCT116 ARID1A^+/+ and ARID1A^−/− cells. Each group contained 15 animals and fractions above bars indicate the number of animals in which a measurable xenograft formed. *p=0.027 Fisher's exact test. E and F. Tumor growth in experiment described in (C). *p=0.015 ANOVA. G. VX-970 dose response curves from TOV21G (ARID1A mutant) and RMG1 (ARID1A wildtype) cells. Cells were exposed to VX-970 for 5 days.”
FIG. 5. […] The percentage of cells in G2/M was measured by FACS following PI staining. […] A minimum of 50 anaphases were scored in 3 biological replicate experiments. *p=0.023, Student's t-test. […]

CNCc1ccc(-c2cc(-c3nc(-c4ccc(S(=O)(=O)C(C)C)cc4)cnc3N)on2)cc1 [VX-970, 5-[4-(Isopropylsulfonyl)phenyl]-3-(3-{4-[(methylamino)methyl]phenyl}-1,2-oxazol-5-yl)-2-pyrazinamine]
growth of established ARID1A+/+ xenografts ([1]; 60 mg/kg, 4x weekly oral gavage, 40 days): no effect
growth of ARID1A+/+ xenografts under continued treatment ([1]; non-established xenograft experiment, p=0.63 ANOVA): did not impair
incidence of ARID1A+/+ xenografts ([1]; treatment from day of cell implantation, incidence 40 days later, 15 animals per group): 80%
PARP-cleavage, ARID1A−/− vs ARID1A+/+ [2]: far higher levels of PARP-cleavage
